Source: patent publication US12258424B2, “Polypeptides and compositions comprising the same” (priority 2020, dated 2025)
Positions of bridges follow the written chain, without caps; N, C: chain ends. Residues, ends and D or L forms follow the SMILES beside them.

Tests used:
[1] = Proteolytic stability in 50% human serum (LC-MS); format: in vitro ADME
Method: Half-life in 50% human serum. Proteolytic stability of the peptides was investigated using LC-MS. Solutions of the anti-PD-L1 peptides were incubated with 50% human serum at […], aliquots were taken at specific time points for processing and subsequent LC-MS analysis.

[2] = Cell viability of DU145 cells (CellTiter-Glo); format: cell-based; settings: human, read-out: % cell viability after incubation with 50 μM peptide
Method: % cell viability after incubation with 50 μM peptide. White 96-well plates with clear bottom (Corning, RFE 3610) were seeded with DU145 cells at a density of 1×10^4 cells/well and incubated in a humidified atmosphere at 37° C. with a supply of 5% CO2. After 12 h, various peptide concentrations were added to the cells and incubated for 48 h. CellTiter-Glo kit (Promega, WI) was employed in the cell viability analysis by following the manufacturer's instructions.

PD1/PD-L1 = PD1/PD-L1 (Homo sapiens, UniProt Q9NZQ7); assay: IC50 and blocking efficiency against PD1/PD-L1 (Table 5); format: binding
Method: (§1) Blocking efficiency at 10 μM/IC50 against human and mouse PD1/PD-L1 (ELISA). […] 100 ng of recombinant human PD-L1 protein was coated in 96-well plates at 4° C. for 16 h with shaking over an orbital shaker. Unbound protein was removed by washing twice with PBS (pH 7.2-7.4), 2% BSA was added for 1.5 h at 37° C. to block the plate. Specific concentrations of the peptides were dispensed into the appropriate wells and incubated for 2 h at 37° C. […] This was followed by the addition of streptavidin-HRP and chromogenic substrate (R & D systems). The color reaction was terminated with 2N H2SO4, absorbance was recorded at OD450 and referenced to OD540.

hPD-L1 [3] = biological target: T1, hPD-L1 (Homo sapiens, UniProt Q9NZQ7); assay: PD-1/PD-L1 inhibitor screening ELISA, human proteins; format: binding; set-up: purchased Acro Biosystems EP-101
Method: as §1

hPD-L1 [4] = biological target: T1, hPD-L1; assay: Competitive SPR blocking of PD-L1 binding to immobilized PD-1; set-up: purchased Acro Biosystems EP-101
Method: % Blocking efficiency at 10 μM (Competitive SPR)/IC50 (competitive SPR) hPD-L1. BI-4500A SPR and a CM-5 sensor chip pre-functionalized with streptavidin (Biosensing Instrument Inc., Tempe, Ariz.) were employed for the SPR analysis. […] Different concentrations of each peptide were incubated with human PD-L1 (AcroBiosystems, cat #EP-101) prior to injection. Human PD-L1 alone was also injected to serve as a control. […] Data was analyzed with SPR Data Analysis Version 3.8.4 (Biosensing Instrument Inc., Tempe, AZ).

mPD-L1 = mPD-L1 (Mus musculus, UniProt Q9EP73); assay: PD-1/PD-L1 blocking ELISA, mouse proteins; format: binding; set-up: purchased Acro Biosystems PD1-M5220 (PD-L1)
Method: as §1

IL-6 = settings: cancer patients, Herbst et al. 2014; cited from earlier work

T1 sequence (Q9NZQ7 19-238 limits assumed): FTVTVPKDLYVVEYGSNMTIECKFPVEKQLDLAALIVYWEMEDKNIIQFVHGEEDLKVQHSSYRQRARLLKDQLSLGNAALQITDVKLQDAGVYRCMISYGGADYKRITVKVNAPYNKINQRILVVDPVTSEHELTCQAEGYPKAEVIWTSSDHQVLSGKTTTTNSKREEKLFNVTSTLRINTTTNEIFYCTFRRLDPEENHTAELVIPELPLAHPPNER
Sequence of PD1/PD-L1 (Q9NZQ7 19-238 limits assumed): as above
Sequence of mPD-L1 (Q9EP73 19-238 limits assumed): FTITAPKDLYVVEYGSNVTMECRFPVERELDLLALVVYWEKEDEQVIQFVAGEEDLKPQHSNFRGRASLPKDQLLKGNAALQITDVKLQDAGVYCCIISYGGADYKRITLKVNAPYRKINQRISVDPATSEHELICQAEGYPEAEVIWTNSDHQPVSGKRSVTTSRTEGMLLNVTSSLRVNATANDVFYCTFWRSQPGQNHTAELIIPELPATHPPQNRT

Row | half-life [1] [min] | % Blocking efficiency at 10 μM (PD1/PD-L1) [%] | % Blocking efficiency at 10 μM (ELISA) hPD-L1 (hPD-L1 [3]) [%] | % Blocking efficiency at 10 μM (Competitive SPR) hPD-L1 (hPD-L1 [4]) [%] | % Blocking efficiency at 10 μM (ELISA) mPD-L1 (mPD-L1) [%] | Compound | viability at 48 h, 50 µM [2] [%] | Expression of IL-6 in the blood (IL-6)
1 | 38.1 | 75 | 75.0 | 86.8 | 89.3 | CC(C)C[C@@H]1NC(=O)[C@H](CC(N)=O)NC(=O)[C@H](Cc2c[nH]c3ccccc23)NC(=O)[C@H]([C@@H](C)O)NC(=O)[C@H](Cc2ccc(O)cc2)NC(=O)[C@H](Cc2ccc(O)cc2)NC(=O)[C@H](CO)NC(=O)[C@H](CCCNC(=N)N)NC(=O)[C@H](Cc2c[nH]cn2)NC(=O)[C@@H](N)CSSC[C@@H](C(=O)O)NC(=O)[C@H](CC(N)=O)NC1=O [CLP2C14] (H-CHRSYYTWNLNC-OH; disulfide 1-12; N-terminus and C-terminus assumed) | ~100 | 
2 | 70.8 | 78 | 85.9 | 99.4 | 82.6 | CC(C)C[C@H](NC(=O)[C@H](CC(N)=O)NC(=O)[C@H](Cc1c[nH]c2ccccc12)NC(=O)[C@@H]1CSSC[C@H](N)C(=O)N[C@@H](Cc2c[nH]cn2)C(=O)N[C@@H](CCCNC(=N)N)C(=O)N[C@@H](CO)C(=O)N[C@@H](Cc2ccc(O)cc2)C(=O)N[C@@H](Cc2ccc(O)cc2)C(=O)N1)C(=O)N[C@@H](CC(N)=O)C(=O)N[C@H](C(=O)O)[C@@H](C)O [CLP2C21] (H-CHRSYYCWNLNT-OH; disulfide 1-7; N-terminus and C-terminus assumed) | ~100 | 
3 |  |  |  |  |  | MPDL3280A: anti-PD-L1 antibody MPDL3280A (Herbst et al. 2014) |  | reduced
